Measurements from patent US9204653B2, “5-fluoro pyrimidine derivatives” (DOW AGROSCIENCES LLC, priority 2008, dated 2015).
Like-named read-outs stand apart in the source and are kept apart here.

System: Mycosphaerella graminicola; Anamorph: Septoria tritici; Bayer Code SEPTTR
Test: Leaf blotch of wheat, foliar fungicide treatment, one day protectant (1DP) or three day curative (3DC)
Format: in vivo, Septoria tritici on wheat plants (variety Yuma)
Settings: Zymoseptoria tritici, percent control rating; for pest or weed control at 100 ppm: read-out: SEPTTR 3DC 100 ppm
[1] = 24 h, one day protectant (1DP), 25 ppm (first 1DP column), read-out: SETTTR 1DP 25 ppm
[2] = 24 h, one day protectant (1DP), 25 ppm as printed (second 1DP column), read-out: SETTTR 1DP 25 ppm
[3] = 72 h, three day curative (3DC), 25 ppm, read-out: SEPTTR 3DC 25 ppm

Compound	pest or weed control at 25 ppm [1] [%]	pest or weed control at 25 ppm [2] [%]	pest or weed control at 25 ppm [3] [%]	pest or weed control at 100 ppm (72 h, three day curative (3DC)) [%]
COc1ncc(F)c(N/N=C(\C)c2sc(C)nc2C)n1 [Compound 1025]	0 to 25	0 to 25	26 to 50	0 to 25
COc1ncc(F)c(N/N=C(\C)c2ccc(F)cc2)n1 [Compound 1026]	26 to 50	26 to 50	0 to 25	26 to 50
Cc1ccc(COc2ncc(F)c(NS(=O)(=O)c3c(Br)cnn3C)n2)cc1 [Compound 1027]	0 to 25	0 to 25	0 to 25	0 to 25
Fc1ccccc1NNc1nc(OCc2ccccc2)ncc1F [Compound 1028]	0 to 25	0 to 25	0 to 25	0 to 25
Fc1cnc(OCc2ccccc2)nc1NNc1cccc(C(F)(F)F)c1 [Compound 1029]	0 to 25	0 to 25	0 to 25	0 to 25
Cc1ccc(COc2ncc(F)c(NNc3ccc(Br)cc3)n2)cc1 [Compound 1030]	0 to 25	0 to 25	0 to 25	0 to 25
COc1cccc(COc2ncc(F)c(NNc3cc(C)nc(C)n3)n2)c1 [Compound 1032]	26 to 50	26 to 50	0 to 25	0 to 25
C/C=C(C)/C=N/Nc1nc(OC)ncc1F [Compound 1033]	0 to 25	0 to 25	0 to 25	26 to 50
COc1ncc(F)c(NNc2ccccc2Cl)n1 [Compound 1034]	0 to 25	0 to 25	0 to 25	0 to 25
Fc1cnc(OCc2ccccc2)nc1NNc1ccc(Br)cc1 [Compound 1035]	0 to 25	0 to 25	0 to 25	0 to 25
Cc1ccc(C)c(NNc2nc(OCc3ccccc3)ncc2F)c1 [Compound 1036]	0 to 25	0 to 25	0 to 25	0 to 25
Fc1cnc(OCc2ccccc2)nc1NNc1ccc(Cl)c(Cl)c1 [Compound 1037]	0 to 25	26 to 50	0 to 25	0 to 25
Fc1cnc(OCc2ccccc2)nc1NNc1nccc(C(F)(F)F)n1 [Compound 1038]	0 to 25	0 to 25	0 to 25	0 to 25
Cc1ccc(COc2ncc(F)c(NNc3ccccc3F)n2)cc1 [Compound 1039]	0 to 25	0 to 25	0 to 25	0 to 25
Cc1ccc(COc2ncc(F)c(NNc3ccc(Cl)nn3)n2)cc1 [Compound 1040]	0 to 25	0 to 25	0 to 25	0 to 25
Cc1ccc(COc2ncc(F)c(NNc3nccc(C(F)(F)F)n3)n2)cc1 [Compound 1041]	0 to 25	0 to 25	0 to 25	0 to 25
Fc1ccc(COc2ncc(F)c(NNc3ccccc3F)n2)cc1 [Compound 1042]	0 to 25	0 to 25	0 to 25	26 to 50
Fc1ccc(COc2ncc(F)c(NNc3nccc(C(F)(F)F)n3)n2)cc1 [Compound 1043]	0 to 25	0 to 25	0 to 25	0 to 25

Compound	pest or weed control at 25 ppm [1] [%]	pest or weed control at 25 ppm [2] [%]	pest or weed control at 25 ppm [3] [%]	pest or weed control at 100 ppm (72 h, three day curative (3DC)) [%]
Fc1ccc(COc2ncc(F)c(NNc3nc4ccccc4s3)n2)cc1 [Compound 1044]	0 to 25	0 to 25	0 to 25	0 to 25
COc1cccc(COc2ncc(F)c(NNc3nccc(C(F)(F)F)n3)n2)c1 [Compound 1045]	0 to 25	0 to 25	0 to 25	0 to 25
COc1cccc(COc2ncc(F)c(NNc3nc4ccccc4s3)n2)c1 [Compound 1046]	0 to 25	0 to 25	0 to 25	0 to 25
Fc1ccc(COc2ncc(F)c(NNc3cccc(F)n3)n2)cc1 [Compound 1047]	0 to 25	0 to 25	26 to 50	26 to 50
COc1ncc(F)c(NNc2ccc(Cl)nn2)n1 [Compound 1048]	0 to 25	0 to 25	0 to 25	0 to 25
COc1ncc(F)c(NNc2nccc(C(F)(F)F)n2)n1 [Compound 1049]	0 to 25	0 to 25	26 to 50	26 to 50
COc1ncc(F)c(NNc2ccccn2)n1 [Compound 1050]	0 to 25	0 to 25	0 to 25	26 to 50
COc1ncc(F)c(NNc2ncnc3ccccc23)n1 [Compound 1051]	0 to 25	0 to 25	26 to 50	0 to 25
COc1ncc(F)c(NNc2ccccc2OC)n1 [Compound 1052]	0 to 25	0 to 25	0 to 25	0 to 25
COc1ncc(F)c(NOCc2ccco2)n1 [Compound 1053]	0 to 25	0 to 25	0 to 25	0 to 25
COc1ncc(F)c(N(O)Cc2ccc(Cl)nc2)n1 [Compound 1054]	0 to 25	0 to 25	0 to 25	0 to 25
COc1ncc(F)c(NNc2c(Cl)cccc2Cl)n1 [Compound 1055]	0 to 25	0 to 25	0 to 25	0 to 25
CNN(C)c1nc(OC)ncc1F [Compound 1056]	0 to 25	0 to 25	26 to 50	26 to 50
CONc1nc(OC)ncc1F [Compound 1058]	0 to 25	0 to 25	0 to 25	0 to 25
C=CCOc1ncc(F)c(NN)n1 [Compound 1059]	0 to 25	0 to 25	0 to 25	26 to 50
C=CCOc1ncc(F)c(N/N=C(\C)c2ccc(F)cc2)n1 [Compound 1060]	0 to 25	0 to 25	0 to 25	0 to 25
C=CCOc1ncc(F)c(N/N=C(\C)c2ccc(Cl)s2)n1 [Compound 1061]	26 to 50	0 to 25	0 to 25	0 to 25
C=CCOc1ncc(F)c(N/N=C/C2CC2)n1 [Compound 1062]	0 to 25	0 to 25	0 to 25	0 to 25
